{"source": "paper PMC12428754", "about": "“Testing Strategies for Metabolite-Mediated Neurotoxicity” (International Journal of Molecular Sciences, 2025)", "key": {"[1]": {"conditions": "for extent of metabolite formation / cofactor (NADPH) dependence of metabolite formation: result in words; for cofactor (NADPH) dependence of metabolite formation: human liver microsomes ± NADPH; for metabolite formation over time: samples every 30 min for 2 h", "experimental": "Parent compounds were incubated at final concentrations of either (a) 5 µM or (b) 50 µM (for chlorfenapyr) with pooled human liver microsomes (HLM; mixed gender, n = 150; BioIVT; West Sussex, UK) at corresponding protein concentrations of (a) 0.52 mg/mL or (b) 5.2 mg/mL. Incubations were performed in the absence or presence of NADPH at final concentrations of (a) 1 mM or (b) 10 mM, respectively, using a thermostated orbital shaker at 37 °C and 150 rpm. Reactions were terminated at designated time points by the addition of acetonitrile/methanol (3:1, v/v). Samples were then centrifuged at 10,000× g for 10 min, and the resulting supernatants were analysed by LC-MS/MS.\nAll analytes were measured using an Acquity UPLC H-Class system coupled to a Xevo TQ-S micro mass spectrometer (Waters). Chromatographic separation was performed on an Acquity UPLC BEH C18 column (2.1 × 50 mm, 1.7 µm) with a mobile phase consisting of 0.1% formic acid in water (A) and acetonitrile (B). Unless otherwise stated, the column was maintained at 30 °C and operated at a flow rate of 0.4 mL/min. The standard gradient was 95% A from 0 to 1.0 min, decreased to 2% A by 1.5 min, held until 4.0 min, returned to 95% A at 4.3 min, and held until 5.0 min. […] The mass spectrometer operated in electrospray ionisation (ESI) mode. Compound-specific MRM transitions, cone voltages, and collision energies for all analytes are listed in Supplementary Table S2.\nInt. J. Mol. Sci. 2025, 26, x FOR PEER REVIEW 3 of 5\nSupplementary Figure S3: Quantification of specific metabolite formation from selected parent/metabolite pairs in a human liver microsomes (HLM) assay. Parent compounds (PAR) were incubated at a concentration of 5 µM (50 µM for chlorfenapyr) with HLM in the absence (dashed line, open symbols) or presence of NADPH (solid lines, closed symbols). Samples were taken every 30 min for 2 h (+NADPH) or at 2 h only (- NADPH). The remaining fraction of the PAR was quantified for each sample. Additionally, one key metabolite (MET) was measured. Its amount is expressed as fraction of PAR converted to MET, assuming an equimolar PAR to MET reaction, 100 % indicates a complete conversion. The middle-dashed line indicates a metabolite formation of at least 10% of PAR. Data are means of two measurements n.d. = not detected.\n(1 picture or pasted object on this page, not shown here)"}, "LUHMES cells [2]": {"test_system": "LUHMES cells", "experiment": "MitoMet (UKN4b) neurite outgrowth assay", "type": "cell-based, human", "conditions": "for IC25: Homo sapiens, benchmark response 25%, neurite area, 24 h exposure, three independent experiments, read-out: BMC25 neurite outgrowth; for fold change between BMC25 values of parent and metabolite (potency ratio, parent divided by metabolite): listed under the metabolite, >1 = metabolite more potent", "experimental": "Figure 1 (A) A strategy scheme to assess metabolite-mediated hazard in NAMs used for neurotoxicity or developmental neurotoxicity. Parent and metabolite compounds are tested separately in the respective assay. This strategy is applicable when there is prior knowledge of metabolite formation. A decision rule based on the relative toxicities (X) of the parent and metabolite may be applied to decide whether next-generation risk assessment (NGRA) should be applied to the metabolite. The value of X may be defined according to the problem formulation and the NAM used. (B) An assay scheme of the neurite outgrowth assay used here for exemplification: Proliferating LUHMES cells were replated one day before differentiation was initiated (day −1). After two days (day 2) in differentiation medium, the cells were replated into assay format (96-well). At this point, neurite growth was re-initiated. The cells were treated with toxicants 1 h after replating. Neurite outgrowth and viability were determined 24 h later, using automated high content imaging. (C) Comparison of neurite outgrowth of cultures treated with bromethalin and desmethyl-bromethalin one exemplary parent/metabolite pair (chemical structures shown). […] The curves are based on data from three independent experiments and were fitted using a four-parameter Hill function. Data points shown are arithmetic means of data from independent experiments ±SEM. In each independent experiment, the technical replicates were measured and averaged. A benchmark response (BMR) of 25% was used as specified in the detailed assay description, and the respective benchmark concentration (BMC25) was determined. […] (D) Microscopic images of calcein-stained LUHMES cells. Similar images are used for neurite quantification. Treatment with 40 nM of the parent (left) or metabolite (right). The scale bar in orange corresponds to 50 µm. […] It stands under panel C and to the right of panel D, and was assigned to C.\n(§1) The MitoMet neurite outgrowth assay was performed as previously described. In brief, all cell culture dishes and flasks were pre-coated with 50 μg/mL poly-l-ornithine (PLO) and 1 μg/mL fibronectin. Proliferating LUHMES cells were maintained in AdvDMEM/F12 containing L-glutamine (2 mM), N2 supplement (1x), and FGF (40 ng/mL). For pre-differentiation, the cells were replated at a density of 46,000 cells/cm^2 one day prior to the induction of differentiation (defined as the day of differentiation, Day −1). Differentiation was initiated by exchanging the culture medium for AdvDMEM/F12 supplemented with L-glutamine (2 mM), N2 supplement (1x), dibutyryl-cAMP (1 mM), tetracycline (1 µg/mL), and GDNF (2 ng/mL). After two days of differentiation (Day 2), the cells were replated (100,000 cells/cm^2) into 96-well plates. The final assay medium consisted of glucose-free AdvDMEM/F12 supplemented with galactose (18 mM), L-glutamine (2 mM), and tetracycline (1 µg/mL). One hour after replating, the cells were treated with a 10× concentrated stock solution of the test compound. Neurite outgrowth and viability were determined 24 h later, using automated high content imaging.\nThe image acquisition and analysis were conducted according to established protocols. The cells were stained with Hoechst H-33342 (1 µg/mL) to visualise nuclei and calcein-AM (1 µM) to label viable cell structures. Fluorescent images were acquired using an automated imaging system."}, "LUHMES cells [3]": {"test_system": "LUHMES cells", "experimental": "Figure 4 A strategy to incorporate metabolic competence into in vitro DNT testing methods. (A) A schematic overview of a sequential metabolism and testing approach. The “metabolisation module” uses hepatic post-mitochondrial fractions (S9) to generate metabolite mixtures in the presence or absence of cofactors (NADPH, glucose-6-phosphate, MgCl2). These metabolite mixtures are tested in the “testing module” in a concentration-dependent manner after serial pre-dilutions. Metabolite mixtures are added as a fraction of 10% to the media volume of the “testing module”. The testing module may be a cell-based neurotoxicity (NT) or developmental neurotoxicity (DNT) assay, such as the neurite outgrowth or migration assay. Here, the Mito-Met neurite outgrowth assay, as in Figure 1, was used. […] The curves represent data from three independent experiments and were fitted using a four-parameter Hill function. […] The data represent three independent experiments. The indicated concentrations are “testing module” concentrations.\nTo further evaluate our modular pre-activation strategy for identifying metabolite-mediated hazard, we tested a broader panel of compounds. For each compound (parent), a single concentration was used in the metabolisation module. The metabolite mixtures were generated in the absence or presence of NADPH. These metabolite mixtures were serially diluted and assessed using the MitoMet neurite outgrowth assay. As a measure of potency, EC25 values were determined, and potency ratios were calculated to compare the effects of NADPH-dependent versus NADPH-independent metabolism.\nFigure 5 The effect of NADPH-dependent hepatic metabolism on the DNT of selected compounds. (A) A strategy scheme to assess the effect of metabolic enzymes on the outcome of cell-based DNT assays. Metabolite mixtures are generated using the NADPH-(in)dependent metabolic activity of S9. NADPH-independent metabolism is shown in green (light grey). NADPH-dependent metabolism is shown in red (dark grey). […] (B–F) The concentration-dependent effect of metabolite mixtures on neurite outgrowth was measured as in Figure 1, with the following modifications: red-fluorescent-protein (RFP)-expressing LUHMES cells were used. As the assay endpoint, the RFP fluorescence of neurites was used instead of calcein staining. The curves represent data from three independent experiments and were fitted using a four-parameter Hill function. From this, an EC25 was calculated. Bold numbers indicate the fold changes between EC25 values of the NADPH-(in)dependent metabolite mixtures, with the direction of the arrow reflecting the shift in sensitivity. Note that the x-axes indicate nominal concentrations of parent compounds. […] Similar images were used for neurite quantification. The right image (red frame) of the pairs was obtained with NADPH. The black arrowheads above the curves indicate the experimental conditions used to record images. The scale bar in orange corresponds to 50 µm.\nas §1, with “plates.” for “plates. The final assay medium consisted of glucose-free AdvDMEM/F12 supplemented with galactose (18 mM), L-glutamine (2 mM), and tetracycline (1 µg/mL). One hour after replating, the cells were treated with a 10× concentrated stock solution of the test compound. Neurite outgrowth and viability were determined 24 h later, using automated high content imaging.”"}, "[4]": {"conditions": "human liver microsomes, listed under the metabolite"}}, "note": "Where two headings read alike, the source gives them in different places.", "data": [{"smiles": "C[C@H]1[C@H](OC(=O)CCC(=O)O)O[C@@H]2O[C@@]3(C)CC[C@H]4[C@H](C)CC[C@@H]1[C@@]24OO3", "note": "[Artesunate]", "values": [{"measurement": "extent of metabolite formation", "setting": "[1]; human liver microsomes", "value": "completely converted"}, {"measurement": "IC25", "setting": "LUHMES cells [2]", "value": 3.4, "unit": "µM"}]}, {"smiles": "CCCCNC(=O)n1c(NC(=O)OC)nc2ccccc21", "note": "[Benomyl]", "values": [{"measurement": "IC25", "setting": "LUHMES cells [2]", "value": 3.7, "unit": "µM"}]}, {"smiles": "COc1ccc2cc3[n+](cc2c1OC)CCc1cc2c(cc1-3)OCO2", "note": "[Berberine]", "values": [{"measurement": "fold change between EC25 values of NADPH-(in)dependent metabolite mixtures (detoxification)", "setting": "LUHMES cells [3]", "value": 5, "unit": "x"}, {"measurement": "effect of metabolisation in the presence of NADPH on toxicity", "setting": "LUHMES cells [3]; result in words", "value": "reduced"}]}, {"smiles": "O=P1(N(CCCl)CCCl)NCCCO1", "note": "(stereo not shown) [Cyclophosphamide]", "values": [{"measurement": "inhibition of neurite outgrowth without preincubation", "setting": "LUHMES cells [3]; 100 µM, 50 µg/mL S9, no preincubation", "value": "No inhibition of neurite outgrowth"}, {"measurement": "reduction of neurite outgrowth", "setting": "LUHMES cells [3]; 100 µM, 50 µg/mL S9, with NADPH, 2 h preincubation", "value": "approximately 90%"}, {"measurement": "neurite toxicity at low S9 concentrations", "setting": "LUHMES cells [3]; 100 µM, S9 <10 µg/mL, 2 h incubation", "value": "did not lead to neurite toxicity"}, {"measurement": "fold change between EC25 values of NADPH-independent and NADPH-dependent metabolite mixtures (toxification)", "setting": "LUHMES cells [3]; rat liver S9 50 µg/mL in testing module, 2 h preincubation, RFP-LUHMES, toxicity increased with NADPH", "value": "> 25", "unit": "x"}]}, {"smiles": "C[C@H]1[C@@H](O)O[C@@H]2O[C@@]3(C)CC[C@H]4[C@H](C)CC[C@@H]1[C@@]24OO3", "note": "[Dihydroartemisinin]", "values": [{"measurement": "cofactor (NADPH) dependence of metabolite formation", "setting": "[1]", "value": "largely independently of NADPH"}, {"measurement": "metabolite formation over time", "setting": "[1]; [4]", "value": "time-dependent increase in metabolite formation"}, {"measurement": "IC25", "setting": "LUHMES cells [2]", "value": 1.2, "unit": "µM"}, {"measurement": "fold change between BMC25 values of parent and metabolite (potency ratio, parent divided by metabolite)", "setting": "LUHMES cells [2]", "value": 3, "unit": "fold"}]}, {"smiles": "COC(=O)Nc1nc2ccc(Sc3ccccc3)cc2[nH]1", "note": "[Fenbendazole]", "values": [{"measurement": "IC25", "setting": "LUHMES cells [2]", "value": 0.047, "unit": "µM"}]}, {"smiles": "O=C(CCC[n+]1ccc(-c2ccc(Cl)cc2)cc1)c1ccc(F)cc1", "note": "[HPP+, haloperidol pyridinium ion]", "values": [{"measurement": "extent of metabolite formation", "setting": "[1]; human liver microsomes", "value": "only trace amounts"}, {"measurement": "metabolite formation over time", "setting": "[1]; [4]", "value": "time-dependent increase in metabolite formation"}, {"measurement": "IC25", "setting": "LUHMES cells [2]", "value": 7.1, "unit": "µM"}, {"measurement": "fold change between BMC25 values of parent and metabolite (potency ratio, parent divided by metabolite)", "setting": "LUHMES cells [2]", "value": 4, "unit": "fold"}]}, {"smiles": "O=C(CCCN1CCC(O)(c2ccc(Cl)cc2)CC1)c1ccc(F)cc1", "note": "[Haloperidol]", "values": [{"measurement": "IC25", "setting": "LUHMES cells [2]", "value": "> 33", "unit": "µM"}]}, {"smiles": "O=P1(NCCCl)OCCCN1CCCl", "note": "(stereo not shown) [Ifosfamide]", "values": [{"measurement": "fold change between EC25 values of NADPH-independent and NADPH-dependent metabolite mixtures (toxification)", "setting": "LUHMES cells [3]", "value": "> 10", "unit": "x"}]}, {"smiles": "CNC(C)Cc1ccc2c(c1)OCO2", "note": "(stereo not shown) [MDMA, methylenedioxymethamphetamine]", "values": [{"measurement": "IC25", "setting": "LUHMES cells [2]", "value": "> 100", "unit": "µM"}]}, {"smiles": "C[n+]1ccc(-c2ccccc2)cc1", "note": "[MPP+, 1-methyl-4-phenylpyridinium]", "values": [{"measurement": "cofactor (NADPH) dependence of metabolite formation", "setting": "[1]", "value": "largely independently of NADPH"}, {"measurement": "metabolite formation over time", "setting": "[1]; [4]", "value": "time-dependent increase in metabolite formation"}, {"measurement": "conversion rate of parent to metabolite", "setting": "[1]; human liver microsomes, up to 2 h, listed under the metabolite", "value": "approximately 10%"}, {"measurement": "IC25", "setting": "LUHMES cells [2]", "value": 0.12, "unit": "µM"}]}, {"smiles": "CN1CC=C(c2ccccc2)CC1", "note": "[MPTP, 1-methyl-4-phenyl-tetrahydropyridine]", "values": [{"measurement": "IC25", "setting": "LUHMES cells [2]", "value": "> 100", "unit": "µM"}]}, {"smiles": "CC(N)Cc1ccc(O)c(O)c1", "note": "(stereo not drawn) [α-Methyldopamine]", "values": [{"measurement": "IC25", "setting": "LUHMES cells [2]", "value": 16, "unit": "µM"}, {"measurement": "fold change between BMC25 values of parent and metabolite (potency ratio, parent divided by metabolite)", "setting": "LUHMES cells [2]", "value": "> 6", "unit": "fold"}]}]}
